Experimental data reported in US12540154B2, “Glucosamine derivative nanoparticle and preparating method and use thereof” (CPC Corporation, TAIWAN, priority 2023, dated 2026).

System: HaCaT cells
Assay: Cell cytotoxicity test (CCK-8)
Type: cell-based, human
Conditions: 125-1,000 ppm, 24 hours, CCK-8, FIG. 6
Procedure: HaCaT cells are seeded into a 96 well plate at 10^5 cells/well. After attachment overnight, remove culture medium. The frozen peptide (KTTKS(SEQ ID NO: 1), CRGDS(SEQ ID NO: 2), and RRRRRR(SEQ ID NO: 3)) and the glucosamine derivative nanoparticles are respectively dissolved in serum-free medium (SFM) again (final concentration 1,000 ppm). Use SFM to carry out serial dilution and get concentrations of 500 ppm, 250 ppm, and 125 ppm. Then add 100 μl samples with different concentrations into the well plate (repeat four times and a group of samples added with SFM used as control group). After being cultured for 24 hours, remove culture medium and add 10 μl CCK-8 and 100 μl PBS into each of the wells. Then react at 37° C. for 2-3 hours and read absorbance at 450 nm. Cell viability is defined as a percentage of the absorbance of the respective test groups relative to the absorbance of the control group while the cell viability of the control group is set as 100%.

SMILES: N[C@H]1C(O)O[C@H](CO)[C@@H](O)[C@@H]1O (stereo partly shown) [glucosamine]
- cell viability trend with concentration: reduced a bit along with the increasing glucosamine concentration
